Laboratory results taken from patent US20250313572A1, “MACROCYCLIC MCL-1 INHIBITORS AND METHODS OF USE” (AbbVie Inc., priority 2017, published 2025).
Where two headings read alike, the source gives them in different places.

Columns and labels:
GST-MCL-1 = GST-MCL-1 (Homo sapiens, UniProt Q07820); assay: TR-FRET MCL-1 binding assay (competition with probe F-Bak)
How it was run: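 Displacement of F-Bak from GST-MCL-1 is detected by time-resolved FRET with a Tb-labelled anti-GST antibody, with excitation 340/35 nm and emission 520/525 and 495/510 nm, after 2 hours at room temperature. Compounds were titrated in 11 three-fold steps starting at 25 μM final, in buffer alone or in 10% HS.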

[1] = test system: AMO-1 human multiple myeloma tumor cell line; assay: AMO-1 cell viability assay (CellTiter-Glo, 24 hours); type: cell-based; settings: Homo sapiens, AMO1, 24 h, read-out: AMO-1 Viability IC50 (μM, 10% FBS), 10% FBS, 24 hours of compound treatment
[2] = test system: NCI-H929 human multiple myeloma tumor cell line; assay: NCI-H929 cell viability assay (CellTiter-Glo, 24 hours); type: cell-based; settings: Homo sapiens, NCI-H929, 24 h, read-out: H929 Viability IC50 (μM, 10% FBS), 10% FBS, 24 hours of compound treatment
[3] = MCL-1 Binding Ki (nM, 10% HS), in the presence of 10% HS (human serum)
[4] = without HS, read-out: MCL-1 Binding Ki

Chain of GST-MCL-1 (Q07820 whole entry): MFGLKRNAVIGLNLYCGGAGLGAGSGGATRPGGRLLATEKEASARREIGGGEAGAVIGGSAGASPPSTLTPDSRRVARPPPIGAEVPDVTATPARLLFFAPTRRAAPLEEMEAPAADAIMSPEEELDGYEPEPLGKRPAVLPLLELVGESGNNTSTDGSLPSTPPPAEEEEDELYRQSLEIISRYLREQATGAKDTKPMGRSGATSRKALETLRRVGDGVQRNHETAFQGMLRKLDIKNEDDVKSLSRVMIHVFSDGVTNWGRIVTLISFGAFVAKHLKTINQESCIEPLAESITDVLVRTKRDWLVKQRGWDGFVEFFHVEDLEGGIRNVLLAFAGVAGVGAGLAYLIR

SMILES	Ki (GST-MCL-1; [3])	Ki (GST-MCL-1; [4])	IC50 [1]	IC50 [2]
Cc1c(Cl)c2c(Cl)c(C)c1-c1c(-c3ccc(F)cc3)sc3ncnc(c13)O[C@@H](C(=O)O)Cc1cc(ccc1OCc1ccnc(N3CCC4(CCCNC4=O)CC3)n1)OC[C@@H](CN1CCN(C)CC1)O2 [Example 61, (7R,16R)-19,23-dichloro-1-(4-fluorophenyl)-20,22-dimethyl-16-[(4-methylpiperazin-1-yl)methyl]-10-{[2-(1-oxo-2,9-diazaspiro[5.5]undecan-9-yl)pyrimidin-4-yl]methoxy}-7,8,15,16-tetrahydro-18,21-etheno-13,9-(metheno)-6,14,17-trioxa-2-thia-3,5-diazacyclononadeca[1,2,3-cd]indene-7-carboxylic Acid]	4.2 nM	0.364 nM	0.00886 µM	0.0115 µM
Cc1c(Cl)c2c(Cl)c(C)c1-c1c(-c3ccc(F)cc3)sc3ncnc(c13)O[C@@H](C(=O)O)Cc1cc(ccc1OCc1ccnc(C(CO)CO)n1)OC[C@@H](CN1CCN(C)CC1)O2 [Example 62, (7R,16R)-19,23-dichloro-10-{[2-(1,3-dihydroxypropan-2-yl)pyrimidin-4-yl]methoxy}-1-(4-fluorophenyl)-20,22-dimethyl-16-[(4-methylpiperazin-1-yl)methyl]-7,8,15,16-tetrahydro-18,21-etheno-9,13-(metheno)-6,14,17-trioxa-2-thia-3,5-diazacyclononadeca[1,2,3-cd]indene-7-carboxylic Acid]	2.26 nM	0.324 nM	0.0251 µM	0.095 µM
COCCOCCOCCOCCOCCOC1(c2nccc(COc3ccc4cc3C[C@H](C(=O)O)Oc3ncnc5sc(-c6ccc(F)cc6)c(c35)-c3c(C)c(Cl)c(c(Cl)c3C)O[C@H](CN3CCN(C)CC3)CO4)n2)CCC1 [Example 63, (7R,16R)-19,23-dichloro-1-(4-fluorophenyl)-20,22-dimethyl-16-[(4-methylpiperazin-1-yl)methyl]-10-[(2-{1-[(2,5,8,11,14-pentaoxahexadecan-16-yl)oxy]cyclobutyl}pyrimidin-4-yl)methoxy]-7,8,15,16-tetrahydro-18,21-etheno-9,13-(metheno)-6,14,17-trioxa-2-thia-3,5-diazacyclononadeca[1,2,3-cd]indene-7-carboxylic Acid]	0.148 nM	0.039 nM	0.00205 µM	0.0032 µM
COCCOCCOCCOCCOC1(c2nccc(COc3ccc4cc3C[C@H](C(=O)O)Oc3ncnc5sc(-c6ccc(F)cc6)c(c35)-c3c(C)c(Cl)c(c(Cl)c3C)O[C@H](CN3CCN(C)CC3)CO4)n2)CCC1 [Example 64, (7R,16R)-19,23-dichloro-1-(4-fluorophenyl)-20,22-dimethyl-16-[(4-methylpiperazin-1-yl)methyl]-10-[(2-{1-[(2,5,8,11-tetraoxatridecan-13-yl)oxy]cyclobutyl}pyrimidin-4-yl)methoxy]-7,8,15,16-tetrahydro-18,21-etheno-9,13-(metheno)-6,14,17-trioxa-2-thia-3,5-diazacyclononadeca[1,2,3-cd]indene-7-carboxylic Acid]	0.167 nM	0.038 nM	0.00163 µM	0.00243 µM
Cc1c(Cl)c2c(Cl)c(C)c1-c1c(-c3ccc(F)cc3)sc3ncnc(c13)O[C@@H](C(=O)O)Cc1cc(ccc1OCc1ccnc(N3CC(C(CO)CO)C3)n1)OC[C@@H](CN1CCN(C)CC1)O2 [Example 65, (7R,16R)-19,23-dichloro-10-({2-[3-(1,3-dihydroxypropan-2-yl)azetidin-1-yl]pyrimidin-4-yl}methoxy)-1-(4-fluorophenyl)-20,22-dimethyl-16-[(4-methylpiperazin-1-yl)methyl]-7,8,15,16-tetrahydro-18,21-etheno-9,13-(metheno)-6,14,17-trioxa-2-thia-3,5-diazacyclononadeca[1,2,3-cd]indene-7-carboxylic Acid]	0.65 nM	0.195 nM	0.0209 µM	0.0596 µM
COCCOCCOCCOCCOCCO[C@H]1CC[C@H](c2nccc(COc3ccc4cc3C[C@H](C(=O)O)Oc3ncnc5sc(-c6ccc(F)cc6)c(c35)-c3c(C)c(Cl)c(c(Cl)c3C)O[C@H](CN3CCN(C)CC3)CO4)n2)CC1 [Example 66, (7R,16R)-19,23-dichloro-1-(4-fluorophenyl)-20,22-dimethyl-16-[(4-methylpiperazin-1-yl)methyl]-10-[(2-{(1r,4r)-4-[(2,5,8,11,14-pentaoxahexadecan-16-yl)oxy]cyclohexyl}pyrimidin-4-yl)methoxy]-7,8,15,16-tetrahydro-18,21-etheno-13,9-(metheno)-6,14,17-trioxa-2-thia-3,5-diazacyclononadeca[1,2,3-cd]indene-7-carboxylic Acid]	0.119 nM	0.015 nM	0.000876 µM	0.00121 µM
COCCOCCOCCOCCOCCOCCO[C@H]1CC[C@H](c2nccc(COc3ccc4cc3C[C@H](C(=O)O)Oc3ncnc5sc(-c6ccc(F)cc6)c(c35)-c3c(C)c(Cl)c(c(Cl)c3C)O[C@H](CN3CCN(C)CC3)CO4)n2)CC1 [Example 67, (7R,16R)-19,23-dichloro-1-(4-fluorophenyl)-10-[(2-{(1r,4r)-4-[(2,5,8,11,14,17-hexaoxanonadecan-19-yl)oxy]cyclohexyl}pyrimidin-4-yl)methoxy]-20,22-dimethyl-16-[(4-methylpiperazin-1-yl)methyl]-7,8,15,16-tetrahydro-18,21-etheno-13,9-(metheno)-6,14,17-trioxa-2-thia-3,5-diazacyclononadeca[1,2,3-cd]indene-7-carboxylic Acid]	0.073 nM	0.016 nM	0.0011 µM	0.00176 µM
COCCOCCOCCOC[C@@H]1CN(c2nccc(COc3ccc4cc3C[C@H](C(=O)O)Oc3ncnc5sc(-c6ccc(F)cc6)c(c35)-c3c(C)c(Cl)c(c(Cl)c3C)O[C@H](CN3CCN(C)CC3)CO4)n2)CCO1 [Example 68, (7R,16R)-19,23-dichloro-1-(4-fluorophenyl)-20,22-dimethyl-16-[(4-methylpiperazin-1-yl)methyl]-10-({2-[(2S)-2-(2,5,8,11-tetraoxadodecan-1-yl)morpholin-4-yl]pyrimidin-4-yl}methoxy)-7,8,15,16-tetrahydro-18,21-etheno-13,9-(metheno)-6,14,17-trioxa-2-thia-3,5-diazacyclononadeca[1,2,3-cd]indene-7-carboxylic Acid]	0.209 nM	0.031 nM	0.000426 µM	0.000938 µM
COCCOCCOCCOCCO[C@H]1CC[C@H](c2nccc(COc3ccc4cc3C[C@H](C(=O)O)Oc3ncnc5sc(-c6ccc(F)cc6)c(c35)-c3c(C)c(Cl)c(c(Cl)c3C)O[C@H](CN3CCN(C)CC3)CO4)n2)CC1 [Example 69, (7R,16R)-19,23-dichloro-1-(4-fluorophenyl)-20,22-dimethyl-16-[(4-methylpiperazin-1-yl)methyl]-10-[(2-{(1r,4r)-4-[(2,5,8,11-tetraoxatridecan-13-yl)oxy]cyclohexyl}pyrimidin-4-yl)methoxy]-7,8,15,16-tetrahydro-18,21-etheno-13,9-(metheno)-6,14,17-trioxa-2-thia-3,5-diazacyclononadeca[1,2,3-cd]indene-7-carboxylic Acid]	0.053 nM	0.012 nM	0.000302 µM	0.000615 µM
COCCOCCOCCO[C@H]1CC[C@@H](c2nccc(COc3ccc4cc3C[C@H](C(=O)O)Oc3ncnc5sc(-c6ccc(F)cc6)c(c35)-c3c(C)c(Cl)c(c(Cl)c3C)O[C@H](CN3CCN(C)CC3)CO4)n2)CC1 [Example 70, (7R,16R)-19,23-dichloro-1-(4-fluorophenyl)-10-({2-[(1s,4s)-4-{2-[2-(2-methoxyethoxy)ethoxy]ethoxy}cyclohexyl]pyrimidin-4-yl}methoxy)-20,22-dimethyl-16-[(4-methylpiperazin-1-yl)methyl]-7,8,15,16-tetrahydro-18,21-etheno-13,9-(metheno)-6,14,17-trioxa-2-thia-3,5-diazacyclononadeca[1,2,3-cd]indene-7-carboxylic Acid]	0.083 nM	0.012 nM	0.000263 µM	0.000489 µM
Cc1c(Cl)c2c(Cl)c(C)c1-c1c(-c3ccc(F)cc3)sc3ncnc(c13)O[C@@H](C(=O)O)Cc1cc(ccc1OCc1ccnc(-c3ccc(OCCN4CCP(C)(=O)CC4)cc3)n1)OC[C@@H](CN1CCN(C)CC1)O2 [Example 71, (7R,16R)-19,23-dichloro-1-(4-fluorophenyl)-20,22-dimethyl-10-[(2-{4-[2-(4-methyl-4-oxo-1, 4λ^5-azaphosphinan-1-yl)ethoxy]phenyl}pyrimidin-4-yl)methoxy]-16-[(4-methylpiperazin-1-yl)methyl]-7,8,15,16-tetrahydro-18,21-etheno-13,9-(metheno)-6,14,17-trioxa-2-thia-3,5-diazacyclononadeca[1,2,3-cd]indene-7-carboxylic Acid]	0.106 nM	0.039 nM	0.00468 µM	0.00851 µM
Cc1c(Cl)c2c(Cl)c(C)c1-c1c(-c3ccc(F)cc3)sc3ncnc(c13)O[C@@H](C(=O)O)Cc1cc(ccc1OCc1ccnc(C3(COCCOCCOC[C@H]4COCCO4)CCC3)n1)OC[C@@H](CN1CCN(C)CC1)O2 [Example 72, (7R,16R)-19,23-dichloro-10-{[2-(1-{[2-(2-{[(2R)-1,4-dioxan-2-yl]methoxy}ethoxy)ethoxy]methyl}cyclobutyl)pyrimidin-4-yl]methoxy}-1-(4-fluorophenyl)-20,22-dimethyl-16-[(4-methylpiperazin-1-yl)methyl]-7,8,15,16-tetrahydro-18,21-etheno-13,9-(metheno)-6,14,17-trioxa-2-thia-3,5-diazacyclononadeca[1,2,3-cd]indene-7-carboxylic Acid]	0.184 nM	0.064 nM	0.000331 µM	0.000743 µM
